What is called IC50 is the concentration that inhibits the measured activity by half.

Counter-ions that a name gives are not always drawn.

For the experiment, the target named is T1, h P2X3 (Homo sapiens, UniProt P56373).
T1 sequence (P56373 1-397): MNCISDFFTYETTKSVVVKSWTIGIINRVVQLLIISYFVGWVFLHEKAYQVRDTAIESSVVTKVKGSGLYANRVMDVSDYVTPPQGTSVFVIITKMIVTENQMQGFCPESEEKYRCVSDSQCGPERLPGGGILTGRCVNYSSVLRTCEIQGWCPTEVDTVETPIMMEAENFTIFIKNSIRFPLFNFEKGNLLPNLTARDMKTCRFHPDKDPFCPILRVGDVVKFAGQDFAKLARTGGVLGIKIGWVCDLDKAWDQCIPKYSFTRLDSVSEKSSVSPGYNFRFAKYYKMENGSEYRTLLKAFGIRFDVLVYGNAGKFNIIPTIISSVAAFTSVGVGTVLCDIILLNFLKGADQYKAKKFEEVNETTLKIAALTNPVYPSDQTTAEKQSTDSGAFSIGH
As to the kind of experiment: In vitro electrophysiology assay for P2X3 (automated whole-cell patch clamp, Sophion Qube). Format: cell-based. As to conditions: Table 6; range of activity; inhibition of P2X3 current, agonist α,β-MeATP (800 nM). As to the method: Pharmacological Activity of the Compounds of the Invention In Vitro Electrophysiology Assay for P2X3
Cells expressing P2X3 receptors were grown according to standard practice and maintained at 37° C. in a 5% humidified CO2 atmosphere. The cells were seeded into T175 flask 2 days prior to the day of the assay and dissociated from the flasks using TrypLE when grown to confluence of 80-90%. The dissociated cells were resuspended in serum free media at a cell density of 3×10^6 cells/ml and loaded onto the Sophion Qube automated patch-clamp system. The extracellular assay buffer contained 145 mM NaCl, 4 mM KCl, 2 mM CaCl2), 1 mM MgCl2, 10 mM HEPES, and 10 mM glucose at pH 7.4. The intracellular assay solution contained 140 mM CsF, 10 mM NaCl, 10 mM EGTA, 10 mM HEPES at pH 7.2. Agonist stock solutions were prepared in H2O and diluted in bath solution prior to use. All antagonists were prepared as 10 mM stock solutions in DMSO and diluted in bath solution prior to use. All experiments were performed under the whole-cell patch clamp configuration at room temperature with 384 individual cells being voltage clamped at −60 mV simultaneously on the Sophion Qube instrument. Two baseline responses were established with the application of α,β-MeATP (800 nM), with the subsequent agonist applications being washed out using extracellular assay buffer containing 0.5 U/ml apyrase. Following the second agonist application, antagonist was incubated in the absence of α,β-MeATP for 10 minutes. After antagonist preincubation, 800 nM α,β-MeATP and antagonist were co-administered to determine the inhibitory effect of the antagonist. One concentration of an antagonist was assessed against a single cell, with different concentrations of the antagonist applied to other cells on the 384 recording substrate. The control P2X3 current amplitude was taken from the peak current amplitude from the second agonist response prior to preincubation with antagonist. The peak P2X3 current amplitude in the presence of antagonist was used to calculate the inhibitory effect at each concentration of the antagonist according to the following equation: […]
Concentration-response curves were constructed from ten different concentrations with each concentration of antagonist tested on at least two individual cells. The concentration of the antagonist to inhibit P2X3 current by 50% (IC50) was determined by fitting the data with the following equation: […]
Where ‘a’ is minimum response, ‘b’ is maximum response, ‘c’ is IC50 and ‘d’ is Hill slope.
The results for individual compounds are provided below in Table 6 and are expressed as range of activity.
The activity of the comparative examples A and B have been tested in the in vitro Electrophysiology Assay for P2X3 as described above.
In general terms: Patch clamp records ionic current or voltage across a cell membrane.
Take `COc1cc(-c2ncc(C)cn2)cc2c(NC(C)c3nc(-c4ccncc4)no3)ncnc12` (stereo not drawn) [Example 6, 8-methoxy-6-(5-methylpyrimidin-2-yl)-N-(1-(3-(pyridin-4-yl)-1,2,4-oxadiazol-5-yl)ethyl)quinazolin-4-amine]: the IC50 was 316 to 3160 nM.

Consider `CNS(=O)(=O)c1cc(-c2ccc(F)cc2)cc2c(N[C@H](C)c3nnc(C)s3)ncnc12` [Example 21], for which the IC50 fell in the range of 316 to 3160 nM.

For `C[C@@H](Nc1ncnc2c(-c3cncnc3)cc(-c3ccc(F)cc3)cc12)c1cnc(C(F)(F)F)nc1` [Example 25, (R)-6-(4-fluorophenyl)-8-(pyrimidin-5-yl)-N-(1-(2-(trifluoromethyl)pyrimidin-5-yl)ethyl)quinazolin-4-amine], the IC50 is less than 316 nM.

`C[C@@H](Nc1ncnc2c(C3CCOCC3)cc(-c3ccc(F)cc3)cc12)c1cnc(C(F)(F)F)nc1` [Example 26, (R)-6-(4-fluorophenyl)-8-(tetrahydro-2H-pyran-4-yl)-N-(1-(2-(trifluoromethyl)pyrimidin-5-yl)ethyl)quinazolin-4-amine] returned an IC50 of 316 to 3160 nM.

Turning to `C[C@@H](Nc1ncnc2c(C3=CCNCC3)cc(-c3ccc(F)cc3)cc12)c1cnc(C(F)(F)F)nc1` [Example 27, (R)-6-(4-fluorophenyl)-8-(1,2,3,6-tetrahydropyridin-4-yl)-N-(1-(2-(trifluoro-methyl)pyrimidin-5-yl)ethyl)quinazolin-4-amine], the IC50 is less than 316 nM.

For the compound `Cc1cnc(-c2cc(OC3CCOCC3)c3ncnc(NCc4ccc(C)nn4)c3c2)nc1` [Example 31, N-[(6-methylpyridazin-3-yl)methyl]-6-(5-methylpyrimidin-2-yl)-8-tetrahydropyran-4-yloxy-quinazolin-4-amine], the IC50 lay within 316 to 3160 nM.

The compound `Cc1ccc([C@@H](C)Nc2ncnc3c(OC4CCOCC4)cc(-c4ccn(C)n4)cc23)nn1` [Example 32, (R)-6-(1-methyl-1H-pyrazol-3-yl)-N-(1-(6-methylpyridazin-3-yl)ethyl)-8-((tetrahydro-2H-pyran-4-yl)oxy)quinazolin-4-amine] yielded an IC50 of 316 to 3160 nM.

As to `Cc1ccc([C@@H](C)Nc2ncnc3c(OC4CCOCC4)cc(-c4ncc(C)s4)cc23)nn1` [Example 33], the 50% inhibitory concentration (IC50) is less than 316 nM.

In turn, `Cc1cnc(-c2cc(OCC3(O)CCOCC3)c3ncnc(NC(C)c4ccc(C)nn4)c3c2)nc1` (stereo not drawn) [Example 34, 4-[[4-[1-(6-methylpyridazin-3-yl)ethylamino]-6-(5-methylpyrimidin-2-yl)quinazolin-8-yl]oxymethyl]tetrahydropyran-4-ol] yielded an IC50 of 316 to 3160 nM.

For the compound `COCCOc1cc(-c2ncc(C)s2)cc2c(NCc3ccc(C)nn3)ncnc12` [Example 35, 8-(2-methoxyethoxy)-N-((6-methylpyridazin-3-yl)methyl)-6-(5-methylthiazol-2-yl)quinazolin-4-amine], the IC50 was less than 316 nM.

On to `Cc1ccc(CNc2ncnc3c(OCCO)cc(-c4ncc(C)s4)cc23)nn1` [Example 36, 2-((4-(((6-methylpyridazin-3-yl)methyl)amino)-6-(5-methylthiazol-2-yl)quinazolin-8-yl)oxy)ethan-1-ol], for which the half-maximal inhibitory concentration (IC50) is less than 316 nM.

`Cc1ccc(CNc2ncnc3c(OCC4COC4)cc(-c4ncc(C)s4)cc23)nn1` [Example 37, N-((6-methylpyridazin-3-yl)methyl)-6-(5-methylthiazol-2-yl)-8-(oxetan-3-ylmethoxy)quinazolin-4-amine] returned an IC50 of less than 316 nM.

In turn, `Cc1ccc(CNc2ncnc3c(OC4CCOCC4)cc(-c4ncc(C)s4)cc23)nn1` [Example 38, N-[(6-methylpyridazin-3-yl)methyl]-6-(5-methylthiazol-2-yl)-8-tetrahydropyran-4-yloxy-quinazolin-4-amine] registered an IC50 of 316 to 3160 nM.

In the case of `C[C@@H](Nc1ncnc2c(OC3CCNC4(CCC4)C3)cc(-c3ccc(F)cc3)cc12)c1cnc(C(F)(F)F)nc1` (stereo partly drawn) [Example 39, 8-(5-azaspiro[3.5]nonan-8-yloxy)-6-(4-fluorophenyl)-N-[(1R)-1-[2-(trifluoromethyl)pyrimidin-5-yl]ethyl]quinazolin-4-amine], the IC50 is less than 316 nM.

Take `C[C@@H](Nc1ncnc2c(OC3CC4CC3CN4)cc(-c3ccc(F)cc3)cc12)c1cnc(C(F)(F)F)nc1` (stereo partly drawn) [Example 41, 8-((2-azabicyclo[2.2.1]heptan-5-yl)oxy)-6-(4-fluorophenyl)-N-((R)-1-(2-(trifluoromethyl)pyrimidin-5-yl)ethyl)quinazolin-4-amine]: the IC50 was less than 316 nM.

With `Cc1cnc(-c2cc(OCC(=O)O)c3ncnc(NCc4ccc(C)nn4)c3c2)nc1` [Example 55, 2-((4-(((6-methylpyridazin-3-yl)methyl)amino)-6-(5-methylpyrimidin-2-yl)quinazolin-8-yl)oxy)acetic acid dihydrochloride], the IC50 is less than 316 nM.

Turning to `CN1CCC(CNc2ncnc3c(OCC(=O)O)cc(-c4ccc(F)cc4)cc23)CC1` [Example 57, 2-((6-(4-fluorophenyl)-4-(((1-methylpiperidin-4-yl)methyl)amino)quinazolin-8-yl)oxy)acetic Acid Hydrochloride], the IC50 fell in the range of 316 to 3160 nM.

`Cc1ccc(CNc2ncnc3c(OC4COC4)cc(-c4ccc(F)cc4)cc23)nn1` [Example 74, 6-(4-fluorophenyl)-N-((6-methylpyridazin-3-yl)methyl)-8-(oxetan-3-yloxy)quinazolin-4-amine]: the IC50 fell in the range of 3160 to 31600 nM.

`Cc1cnc(-c2cc(OC3CCOCC3)c3ncnc(NC(C)c4nnc(C)s4)c3c2)s1` (stereo not drawn) [Example 81, N-[1-(5-methyl-1,3,4-thiadiazol-2-yl)ethyl]-6-(5-methylthiazol-2-yl)-8-tetrahydropyran-4-yloxy-quinazolin-4-amine] gave an IC50 of 316 to 3160 nM.

As to `Cc1nc([C@@H](C)Nc2ncnc3c(OC4CCOCC4)cc(-c4ccc(F)cn4)cc23)no1` [Example 82, 6-(5-fluoro-2-pyridyl)-N-[(1R)-1-(5-methyl-1,2,4-oxadiazol-3-yl)ethyl]-8-tetrahydropyran-4-yloxy-quinazolin-4-amine], the IC50 was less than 316 nM.

Take `Cc1ccc(CNc2ncnc3c(-c4ccnn4C)cc(-c4ccc(F)cc4)cc23)nn1` [Example 94, 6-(4-fluorophenyl)-8-(2-methylpyrazol-3-yl)-N-[(6-methylpyridazin-3-yl)methyl]quinazolin-4-amine]: the IC50 was 316 to 3160 nM.

The compound `COc1cc(-n2ccc(Cl)n2)cc2c(NC(C)c3cnc(C(F)(F)F)nc3)ncnc12` (stereo not drawn) [Example 95, 6-(3-Chloro-1H-pyrazol-1-yl)-8-methoxy-N-(1-(2-(trifluoromethyl)pyrimidin-5-yl)ethyl)quinazolin-4-amine] registered an IC50 of less than 316 nM.

Turning to `COc1cc(-n2ccc(Cl)n2)cc2c(NC(C)c3ccc(C)nn3)ncnc12` (stereo not drawn) [Example 96, 6-(3-chloro-1H-pyrazol-1-yl)-8-methoxy-N-(1-(6-methylpyridazin-3-yl)ethyl)quinazolin-4-amine], the IC50 fell in the range of 316 to 3160 nM.

As to `COc1cc(-n2cc(F)cn2)cc2c(N[C@H](C)c3cnc(C(F)(F)F)nc3)ncnc12` [Example 97, (R)-6-(4-fluoro-1H-pyrazol-1-yl)-8-methoxy-N-(1-(2-(trifluoromethyl)pyrimidin-5-yl)ethyl)quinazolin-4-amine], the IC50 lay within 316 to 3160 nM.

In the case of `COc1cc(-n2cc(F)cn2)cc2c(N[C@H](C)c3ccc(C)nn3)ncnc12` [Example 98, (R)-6-(4-fluoro-1H-pyrazol-1-yl)-8-methoxy-N-(1-(6-methylpyridazin-3-yl)ethyl)quinazolin-4-amine], the IC50 was 316 to 3160 nM.

Turning to `COc1cc(-n2cc(Cl)cn2)cc2c(N[C@H](C)c3ccc(C)nn3)ncnc12` [Example 100, (R)-6-(4-chloro-1H-pyrazol-1-yl)-8-methoxy-N-(1-(6-methylpyridazin-3-yl)ethyl)quinazolin-4-amine], the IC50 is less than 316 nM.

`COc1cc(-n2ccc(F)n2)cc2c(N[C@H](C)c3ccc(C)nn3)ncnc12` [Example 101, (R)-6-(3-fluoro-1H-pyrazol-1-yl)-8-methoxy-N-(1-(6-methylpyridazin-3-yl)ethyl)quinazolin-4-amine] returned an IC50 of 316 to 3160 nM.

The values are drawn from US12466820B2, “Amino quinazoline derivatives as P2X3 inhibitors” (CHIESI FARMACEUTICI S.p.A., priority 2019, dated 2025).
